Reference: patent US11197878B2, “Anti-inflammatory composition including novel quercetin-based compound” (AMOREPACIFIC CORPORATION, priority 2017, dated 2021)

Test system: IL-6 (Interleukin 6)
Experiment: Test for inhibiting generation of IL-6 in H2O2-stimulated fibroblast (ELISA)
Assay type: cell-based
Conditions: for inhibition at 100 µg/mL: Fibroblast, 100 μg/ml, {1−(test sample−control)/(H2O2−control)}×100, read-out: Inhibition effect according to Equation 1, IL-6; for IL-6: fibroblast culture medium, H2O2 500 μM 24 hours, then test material (31, 32: 100 μg/ml) 48 hours, ELISA
Method: Fibroblast (PromoCell, Germany) was inoculated in a 6-well culturing plate at a concentration of 1×10^5 cells, and cultured in a 5% CO2 incubator at 37° C. for 24 hours. The well was treated with H2O2 500 μM and stimulated for 24 hours, and then were treated with quercetin3-O-[3-O″-(E)-p-coumaroyl][β-D-glucopyranosyl-(1→3)-O-α-L-rhamnopyranosyl-(1→6)-O-β-D-glucopyranoside] (‘New Material 31’) and quercetin3-O-[3-O″-(E)-p-coumaroyl][α-L-rhamnopyranosyl-(1→6)-O-β-D-glucopyranoside]) (‘New Material 32’) at a concentration of 100 μg/ml, respectively, and reacted for 48 hours. After the reaction was finished, the culture medium was collected and the ELISA analysis was performed. Herein, α-bisabolol, which is the material typically used as an anti-inflammatory agent and abirritant, was used as a control. As PGE2, a kit of Assay Design® was used, and as IL-6 and IL-8, a kit of Endogen® was used, and the test was carried out according to the methods prescribed in the manuals of the respective companies. (‘31’ refers to New Material 31, and ‘32’ refers to New Material 32) Inhibition effect={1−(test sample−control)/(H2O2−control)}×100 <Equation 1>

Q: With C[C@@H]1O[C@@H](OC[C@H]2O[C@@H](Oc3c(-c4ccc(O)c(O)c4)oc4cc(O)cc(O)c4c3=O)[C@H](O)[C@@H](OC(=O)/C=C/c3ccc(O)cc3)[C@@H]2O)[C@H](O)[C@H](O[C@@H]2O[C@H](CO)[C@@H](O)[C@H](O)[C@H]2O)[C@H]1O [New Material 31, quercetin3-O-[3-O″-(E)-p-coumaroyl][β-D-glucopyranosyl-(1→3)-O-α-L-rhamnopyranosyl-(1→6)-O-β-D-glucopyranoside]] as the compound, how does the inhibition at 100 µg/mL read?
A: 29.2%

Q: And the IL-6?
A: 226 pg/mL

Q: What does the source list for C[C@@H]1O[C@@H](OC[C@H]2O[C@@H](Oc3c(-c4ccc(O)c(O)c4)oc4cc(O)cc(O)c4c3=O)[C@H](O)[C@@H](OC(=O)/C=C/c3ccc(O)cc3)[C@@H]2O)[C@H](O)[C@H](O)[C@H]1O [New Material 32, quercetin3-O-[3-O″-(E)-p-coumaroyl][α-L-rhamnopyranosyl-(1→6)-O-β-D-glucopyranoside]]?
A: inhibition at 100 µg/mL: 29.2%; IL-6: 226 pg/mL
